# Data as given in the COVID Moonshot data (paper PMC7615835).
# “And” between values parts separate entries of the source, which are not always exact repeats. Equal entries are not always repeated.
# Molecular target: SARS-CoV-2 Main Protease (SARS-CoV-2) (UniProt P0DTD1)
row,SMILES,IC50
1,O=c1c(O[C@@H]2O[C@H](CO)[C@H](O)[C@H](O)[C@H]2O)c(-c2ccc(O)c(O)c2)oc2cc(O)cc(O)c12 (stereo in doubt),> 99.5 µM
2,O=C(Cc1cc(Cl)cc(Nc2n[nH]cc2Br)c1)Nc1cncc2ccccc12,5.04 µM
3,O=C(Cc1cc(Cl)cc(Nc2ccc(I)c(F)c2)c1)Nc1cncc2ccccc12,2.04 µM
4,O=C(NCCc1cccc(F)c1)C(c1cccnc1)N(C(=O)c1cocn1)c1ccc(C2(O)COC2)cc1 (stereo not given),> 99.5 µM
5,Cc1cc(O)ncc1NC(=O)C1CCOc2ccc(Cl)cc21 (stereo not given),> 99.5 µM
6,Cc1nn(-c2cc(Cl)cc(CC(=O)Nc3cncc4ccccc34)c2)c(N)c1Br,1.72 µM
7,CSCCNC(=O)C(c1cccnc1)N(C(=O)c1cocn1)c1ccc(C(C)(C)C)cc1 (stereo not given),2.45 µM
8,O=C(Cc1cc(Cl)cc(N(C(=O)c2ccccc2)C2CCNCC2)c1)Nc1cncc2ccccc12,2.14 µM
9,O=C1CN(C(=O)Cc2cccc(Cl)c2)Cc2ccccc21,> 99.5 µM
10,C[C@@]1(C(=O)Nc2cncc3ccccc23)CCNc2cc(Cl)c(Cl)cc21 (stereo in doubt),0.234 µM and 0.979 µM
11,O=C(NCc1ccc2[nH]c(=O)[nH]c2c1)Nc1ccc(F)c(F)c1,> 99.5 µM
12,CCOC(=O)c1cccc(NC(=O)[C@@H]2CN(C(=O)CCl)CCN2S(=O)(=O)c2ccsc2)c1 (stereo in doubt),0.459 µM
13,N#Cc1cccc(CN2CCN(C(=O)CCl)CC2)c1,19.7 µM
14,CC(C)(C)c1ccc(N(C(=O)c2c[nH]c(=O)cn2)C(C(=O)NCCc2cccc(F)c2)c2cccnc2)cc1 (stereo not given),77.1 µM
15,O=C(Cc1cccc(Cl)c1)Nc1[nH]nc2cccc(F)c12,> 99.5 µM
16,Nc1cccc(C2CN(C(=O)CCl)Cc3ccccc32)c1 (stereo not given),9.23 µM
17,Cn1nnnc1C1=CCN(C(=O)CC2(C(=O)Nc3cncc4ccccc34)CCOc3ccc(Cl)cc32)CC1 (stereo not given),9.18 µM
18,Cc1ccncc1NC(=O)Cc1cc(Cl)cc(NC2CCCC2O)c1 (stereo not given),19.7 µM
19,CNC(=O)CN1CC(C)(C(=O)Nc2cncc3cccc(Cl)c23)c2cc(Cl)ccc2S1(=O)=O (stereo not given),1.16 µM
20,O=C(Nc1nncn1C1CC1)C1CCS(=O)(=O)c2ccccc21 (stereo not given),68.9 µM

row,SMILES,IC50
1,Nc1cncc2c1CCCN2C(=O)Cc1cccc(Cl)c1,25.5 µM and 41.4 µM
2,O=C(Nc1cncc2ccccc12)C1COc2ccc(Cl)cc21 (stereo not given),0.764 µM
3,CC(C)(C)c1ccc(N(C(=O)c2cocn2)C(C(=O)NCCc2cccc(F)c2)c2ccnnc2)cc1 (stereo not given),2.05 µM
4,CN(CCO)S(=O)(=O)N1Cc2ccc(Cl)cc2C2(CCN(c3cncc4ccccc34)C2=O)C1 (stereo not given),0.699 µM
5,O=CN1CCC(OC(=O)c2c[nH]nc2-c2ccc(Cl)cc2)CC1,> 99.5 µM
6,CNc1cncc(NC(=O)C2CCOc3ccc(Cl)cc32)c1C (stereo not given),32.3 µM
7,Cn1cnc2cc(N(C(=O)c3cocn3)C(C(=O)NCCc3cccc(F)c3)c3cccnc3)ccc21 (stereo not given),> 99.5 µM
8,CN(C1CC1)S(=O)(=O)N1Cc2ccc(Cl)cc2C(C(=O)Nc2cncc3ccccc23)C1 (stereo not given),0.104 µM
9,O=C(Cc1cc(Cl)cc(Nc2c(F)cccc2Br)c1)Nc1cncc2ccccc12,3.39 µM
10,CCS(=O)(=O)Nc1ccc2c(NC(=O)C3CN(S(=O)(=O)CC4(C#N)CC4)Cc4ccc(Cl)cc43)cncc2c1 (stereo not given),< 0.05 µM
11,C[n+]1ccn(CCc2cccc(Cl)c2)c1C#N,> 99.5 µM
12,Cn1ccc(CN2Cc3ccc(Cl)cc3C(C(=O)Nc3cncc4ccc(F)cc34)C2)n1 (stereo not given),1.35 µM
13,O=C(Cc1cc(Cl)cc(Nc2ccc(Br)c([N+](=O)[O-])c2)c1)Nc1cncc2ccccc12,2.06 µM
14,CN(Cc1cccc2ccccc12)c1cc(Cl)cc(CC(=O)Nc2cncc3ccccc23)c1,8.79 µM
15,Nc1nn(C(=O)Cc2cccc(Cl)c2)c2cccc(F)c12,> 99.5 µM
16,O=C(CC1(C(=O)Nc2cncc3ccccc23)CCOc2ccc(Cl)cc21)Nc1nnco1 (stereo not given),> 99.5 µM
17,O=C(O)CC1(C(=O)Nc2cncc3ccccc23)CCOc2ccc(Cl)cc21 (stereo not given),31.4 µM and > 9.95 µM
18,O=C(COCC1(C(=O)Nc2cncc3ccccc23)CCOc2ccc(Cl)cc21)Nc1ncc[nH]1 (stereo not given),1.99 µM
19,O=C(CN1CC(C(=O)Nc2cncc3cc(F)ccc23)c2cc(Cl)ccc2C1=O)NC1CCC1 (stereo not given),0.34 µM
20,CC(=O)NCC1(C(=O)Nc2cncc3ccccc23)CCOc2ccc(Cl)cc21 (stereo not given),3.34 µM
